From patent US7737144B2, “Pyrimido[5,4-e][1,2,4]triazine-5-7-diones, processes for preparing them and their use” (Sanofi-Aventis Deutschland GmbH, priority 2003, dated 2010)

Molecular target: T1, recombinant human PTP1B (Homo sapiens, UniProt P18031)
T1 construct: without the carboxy terminal hydrophobic region (corresponding to 1-299 aa); FLAG (N); made in house; host or cells: Sf9 insect cells (baculovirus, Bac-to-Bac)
T1 sequence (P18031 1-299): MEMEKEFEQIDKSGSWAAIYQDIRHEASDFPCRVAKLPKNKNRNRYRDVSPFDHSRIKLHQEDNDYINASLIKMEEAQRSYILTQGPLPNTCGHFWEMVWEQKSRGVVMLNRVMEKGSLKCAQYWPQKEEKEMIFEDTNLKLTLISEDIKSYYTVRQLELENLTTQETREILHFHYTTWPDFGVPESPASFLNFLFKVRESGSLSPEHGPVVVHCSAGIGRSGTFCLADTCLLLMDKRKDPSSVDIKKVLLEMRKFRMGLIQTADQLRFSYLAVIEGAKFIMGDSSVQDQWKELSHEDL
Test: Inhibiting phosphotyrosine phosphatase 1B (PTP1B), in-vitro phosphatase assay
Assay type: biochemical
Conditions: Table 2 Biological activity; substrate variant (phosphopeptide, p-nitrophenyl phosphate or DIFMUP) not stated
Excerpt: Inhibiting Phosphotyrosine Phosphatase 1B (PTP1B)
The setting up and implementation of an in-vitro assay for detecting a phosphatase-inhibiting effect of the compounds according to the invention are described below. The isolation of the enzyme preparation and the implementation of the assay are described. […]
This assay is based on releasing phosphate from a consensus substrate peptide which is detected in the nanomolar concentration range using the malachite green/ammonium molybdate method (Lanzetta, P. A., Alvarez, L. J., Reinach, P. S., Candia, O. A. Anal Biochem. 100: 95-97, 1979) as adapted for the microtiter plate format. […] After incubating at 22° C. for 30 min, in order to develop the color, the absorption at 650 nm was determined using a microtiter plate reader (Molecular Devices). Samples and blanks were measured in triplicate. The PTP1B activity was calculated as nanomoles of phosphate released per min and mg of protein using potassium phosphate as the standard. The inhibition of the recombinant hPTP1B by test substances was calculated as percentages of the phosphatase control. […]

CCCCn1nc(-c2cccc(Oc3ccccc3)c2)nc2c(=O)n(C)c(=O)nc1-2 [compound 5]
IC50: 5.2 µM
